What was measured:
p110α/p85α = p110α/p85α (Homo sapiens, UniProt P42336); experiment: In vitro lipid kinase profiling
PLK2 = PLK2 (Homo sapiens, UniProt Q9NYY3); experiment: HotSpot protein kinase panel; conditions: read-out: PLK2 activity remaining
Method: (§3) In both titrations, the ATP concentration was fixed at 50 μM. The assay kits for Plk1 and RSK2 were obtained from Promega (Madison, Wis.), which use ADP-Glo™ for activity detection.

L6 myotubes [1] = experiment: Immunoblot analysis of ACC phosphorylation in L6 myotubes; assay type: cell-based, rat; conditions: dose-dependent
Method: (§1) BT-474 and MCF7 breast cancer cells, C2Cl2 mouse myoblast cells, and HEK 293T cells were maintained in high-glucose DMEM medium containing 10% FBS. L6 rat myoblast cells were maintained in α-MEM medium containing 10% FBS. For differentiation into myotubes, C2Cl2 cells were kept in DMEM medium containing 2% horse serum for 5 days, and L6 cells were kept in α-MEM medium containing 2% FBS for 7 days. Amino-acid-free DMEM medium was prepared using powder from USBio, and MEM amino acids solution was from Gibco. Media were all supplemented with 100 U/ml penicillin/streptomycin. Cell lines were purchased from ATCC.
(§2) After wash with cold DPBS buffer, cells were lysed in RIPA buffer that contained 50 mM Tris-HCl pH 8.0, 150 mM NaCl, 1 mM EDTA, 1 mM EGTA, 1% NP-40, 0.5% sodium deoxycholate, 0.1% SDS, and protease and phosphatase inhibitor cocktails (Roche). Total protein concentrations were measured using a BCA assay (Thermo scientific). Cell lysate (about 80 μg protein) was resolved by SDS-PAGE and blotted onto PVDF membranes. The membranes were probed overnight at 4° C. with appropriate primary antibodies (Cell Signaling Technology) and incubated with secondary fluorescent antibodies (LI-COR Biosciences) for 1 hr at room temperature before imaging by an Odyssey CLx system.

MCF10A p53(−/−) cells = experiment: Growth of isogenic MCF10A cells, p53(−/−); assay type: cell-based
EIF2AK3 = EIF2AK3 (Homo sapiens, UniProt Q9NZJ5); experiment: HotSpot protein kinase panel; conditions: read-out: EIF2AK3 activity remaining
TYRO3 = TYRO3 (Homo sapiens, UniProt Q06418); experiment: HotSpot protein kinase panel; conditions: read-out: TYRO3 activity remaining
Sequence of TYRO3 (Q06418 41-890): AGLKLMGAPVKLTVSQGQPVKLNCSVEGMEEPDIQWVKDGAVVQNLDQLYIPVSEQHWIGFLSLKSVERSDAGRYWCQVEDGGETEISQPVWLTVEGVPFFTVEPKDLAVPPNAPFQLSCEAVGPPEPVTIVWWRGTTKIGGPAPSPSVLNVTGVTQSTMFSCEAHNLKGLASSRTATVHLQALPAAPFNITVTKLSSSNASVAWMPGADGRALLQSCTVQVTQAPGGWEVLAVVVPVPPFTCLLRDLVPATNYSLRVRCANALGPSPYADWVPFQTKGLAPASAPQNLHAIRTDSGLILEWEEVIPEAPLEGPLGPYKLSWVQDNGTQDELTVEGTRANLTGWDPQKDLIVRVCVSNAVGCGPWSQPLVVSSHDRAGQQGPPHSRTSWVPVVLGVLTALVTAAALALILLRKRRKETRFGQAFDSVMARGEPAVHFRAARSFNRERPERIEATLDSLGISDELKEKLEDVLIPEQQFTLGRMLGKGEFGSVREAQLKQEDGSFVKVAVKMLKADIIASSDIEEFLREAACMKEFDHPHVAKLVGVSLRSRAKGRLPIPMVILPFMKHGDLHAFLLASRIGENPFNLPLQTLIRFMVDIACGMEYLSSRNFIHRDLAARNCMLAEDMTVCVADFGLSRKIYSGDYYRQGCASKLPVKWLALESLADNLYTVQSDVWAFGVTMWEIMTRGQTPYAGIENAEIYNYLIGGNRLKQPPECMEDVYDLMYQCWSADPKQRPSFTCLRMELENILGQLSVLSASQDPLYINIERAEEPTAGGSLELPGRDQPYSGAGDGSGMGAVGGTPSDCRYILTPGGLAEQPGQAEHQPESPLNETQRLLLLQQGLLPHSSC

BT474 cells [2] = experiment: Cell cycle analysis by flow cytometry; assay type: cell-based
Method: To monitor cell cycle progression, cells were harvested by trypsinization, washed with DPBS, and fixed with cold 70% ethanol for 30 min at 4° C. Before analysis, 2×10^6 cells were washed with DPBS three times and treated with 100 μl 100 μg/ml ribonuclease (DNase-free; Sigma Aldrich) for 10 min at room temperature. Samples were then stained for total DNA using 400 μl DPBS containing 50 μg/ml propidium iodide (Invitrogen). Cell cycle distribution was analyzed by a BD LSR II flow cytometer.

NEK11 = NEK11 (Homo sapiens, UniProt Q8NG66); experiment: HotSpot protein kinase panel; conditions: read-out: NEK11 activity remaining
RSK2 = RSK2 (Homo sapiens, UniProt P51812); experiment: HotSpot protein kinase panel; conditions: read-out: RSK2 activity remaining
Sequence of RSK2 (P51812 whole entry): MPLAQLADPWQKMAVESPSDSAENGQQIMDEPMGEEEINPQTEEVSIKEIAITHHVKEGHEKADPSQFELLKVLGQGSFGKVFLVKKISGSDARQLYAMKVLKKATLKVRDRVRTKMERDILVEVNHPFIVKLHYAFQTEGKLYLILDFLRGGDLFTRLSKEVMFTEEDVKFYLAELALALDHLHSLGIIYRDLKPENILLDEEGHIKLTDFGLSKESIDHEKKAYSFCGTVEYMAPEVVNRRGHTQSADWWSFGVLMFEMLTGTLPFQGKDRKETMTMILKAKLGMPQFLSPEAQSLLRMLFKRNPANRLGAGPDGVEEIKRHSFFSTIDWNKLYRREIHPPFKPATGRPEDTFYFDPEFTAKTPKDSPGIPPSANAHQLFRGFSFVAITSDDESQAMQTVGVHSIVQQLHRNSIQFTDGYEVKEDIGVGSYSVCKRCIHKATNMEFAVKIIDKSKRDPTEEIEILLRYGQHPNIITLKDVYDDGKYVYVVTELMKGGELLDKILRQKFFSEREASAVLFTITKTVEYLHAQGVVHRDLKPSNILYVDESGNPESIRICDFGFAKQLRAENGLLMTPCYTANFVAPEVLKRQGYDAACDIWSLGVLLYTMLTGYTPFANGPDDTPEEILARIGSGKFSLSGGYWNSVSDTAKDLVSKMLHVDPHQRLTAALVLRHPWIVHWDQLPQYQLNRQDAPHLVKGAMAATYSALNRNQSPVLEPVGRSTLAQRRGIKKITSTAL
Method: as §3

PI4P5Kγ = PI4P5Kγ (Homo sapiens, UniProt O60331); experiment: Lipid kinase panel (ADP-Glo); conditions: read-out: PI4P5Kγ activity remaining
Sequence of PI4P5Kγ (O60331 whole entry): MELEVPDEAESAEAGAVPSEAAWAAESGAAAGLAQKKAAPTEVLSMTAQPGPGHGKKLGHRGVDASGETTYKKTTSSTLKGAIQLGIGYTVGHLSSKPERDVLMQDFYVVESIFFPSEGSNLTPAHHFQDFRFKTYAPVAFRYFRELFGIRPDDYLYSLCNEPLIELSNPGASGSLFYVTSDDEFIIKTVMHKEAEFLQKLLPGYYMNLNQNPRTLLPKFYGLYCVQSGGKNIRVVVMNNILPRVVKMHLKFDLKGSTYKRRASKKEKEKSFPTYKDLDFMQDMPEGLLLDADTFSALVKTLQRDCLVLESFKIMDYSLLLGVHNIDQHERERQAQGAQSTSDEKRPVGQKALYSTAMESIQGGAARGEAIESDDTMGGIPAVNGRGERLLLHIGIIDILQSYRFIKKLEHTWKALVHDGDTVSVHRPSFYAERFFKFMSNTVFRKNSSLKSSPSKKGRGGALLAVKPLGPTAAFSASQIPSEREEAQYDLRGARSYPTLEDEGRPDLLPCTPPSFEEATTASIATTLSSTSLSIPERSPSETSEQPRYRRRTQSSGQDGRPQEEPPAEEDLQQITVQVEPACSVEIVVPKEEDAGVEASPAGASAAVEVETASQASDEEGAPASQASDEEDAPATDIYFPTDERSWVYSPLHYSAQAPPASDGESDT

L6 myotubes [3] = experiment: 2-deoxyglucose uptake; assay type: cell-based, rat; conditions: overnight treatment with 20 μM 7a or 1 mM metformin
Method: To measure 2-deoxyglucose (2-DG) uptake, L6 myotubes were treated with compound or DMSO control overnight in the absence of serum in α-MEM. Following treatment, cells were washed twice with KRH buffer (50 mM HEPES pH 7.4, 137 mM NaCl, 4.7 mM KCl, 1.85 mM CaCl2, 1.3 mM MgSO4) containing 0.1% BSA. Residual wash buffer was removed by aspiration. Cells were then incubated for 10 min at 37° C. in a KRH buffer containing 0.1% BSA, 5 mM unlabeled 2-DG and 2 μCi/ml [1,2-^3H(N)]-2-deoxy-D-glucose (PerkinElmer). The uptake was terminated by washing four times with ice-cold KRH buffer containing 0.1% BSA. Nonspecific 2-DG uptake into cells was determined in the presence of 10 μM cytochalasin B, which inhibits glucose transporters, and subtracted. The cells were lysed with 0.05 M NaOH for 2 hrs at 37° C. 10 μl cell lysate was used to quantify protein concentration by BCA assay. The remaining sample was transferred to a scintillation vial containing 3 ml Opti-Fluor liquid scintillation cocktail (PerkinElmer), and radioactivity was determined using a Beckman Coulter LS 6500 scintillation system and normalized against protein concentration.

MCF7 cells = experiment: Immunoblot analysis of AMPK activation in MCF7 cells; assay type: cell-based
Method: as §2

PIKfyve = PIKfyve (Homo sapiens, UniProt Q9Y2I7); experiment: Lipid kinase assay
C2Cl2 myotubes = experiment: Immunoblot analysis of signaling in C2Cl2 myotubes; assay type: cell-based, mouse
Method: as §1, §2

Plk1 = Plk1 (Homo sapiens, UniProt P53350); experiment: HotSpot protein kinase panel; conditions: read-out: Plk1 activity remaining
Sequence of Plk1 (P53350 whole entry): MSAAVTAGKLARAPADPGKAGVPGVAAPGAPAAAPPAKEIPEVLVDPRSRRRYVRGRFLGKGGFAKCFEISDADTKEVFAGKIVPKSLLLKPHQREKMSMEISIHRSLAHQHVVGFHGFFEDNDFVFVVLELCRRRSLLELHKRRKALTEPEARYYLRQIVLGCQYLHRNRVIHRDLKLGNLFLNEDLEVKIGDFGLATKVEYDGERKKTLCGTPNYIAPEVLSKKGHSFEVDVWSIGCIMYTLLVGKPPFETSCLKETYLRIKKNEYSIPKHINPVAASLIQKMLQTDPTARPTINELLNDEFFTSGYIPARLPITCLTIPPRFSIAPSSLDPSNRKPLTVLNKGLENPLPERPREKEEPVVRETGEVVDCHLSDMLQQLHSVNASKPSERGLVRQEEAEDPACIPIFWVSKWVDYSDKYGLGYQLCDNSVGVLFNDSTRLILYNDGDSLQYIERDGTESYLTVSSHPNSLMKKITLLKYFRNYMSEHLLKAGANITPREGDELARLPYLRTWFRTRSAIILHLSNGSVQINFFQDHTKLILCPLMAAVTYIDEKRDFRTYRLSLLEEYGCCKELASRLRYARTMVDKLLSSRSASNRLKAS
Method: as §3

BT474 cells [4] = experiment: Immunoblot analysis in BT474 cells; assay type: cell-based
Method: as §2

Vps34 = Vps34 (Homo sapiens, UniProt Q8NEB9); experiment: In vitro lipid kinase profiling
BT-474 cells = experiment: Intracellular ROS (DCFDA); assay type: cell-based; conditions: 20 μM
Method: 2′,7′-dichlorofluorescin diacetate (DCFDA) was used to assess intracellular ROS levels. DCFDA is deacetylated in the cell and oxidized by ROS to a fluorescent product 2′,7′-dichlorofluorescein (DCF). BT-474 cells were plated on a black clear-bottom 96-well plate (Corning 3603; 2×10^4 cells per well). ROS was measured by a DCFDA cellular ROS detection assay kit (Abcam) following the manufacturer's protocol. The cells were treated with compound for 6 hrs before fluorescence was measured using a SpectraMax M5 plate reader (excitation 485 nm, emission 535 nm).

Sequence of p110α/p85α (P42336 whole entry, species assumed): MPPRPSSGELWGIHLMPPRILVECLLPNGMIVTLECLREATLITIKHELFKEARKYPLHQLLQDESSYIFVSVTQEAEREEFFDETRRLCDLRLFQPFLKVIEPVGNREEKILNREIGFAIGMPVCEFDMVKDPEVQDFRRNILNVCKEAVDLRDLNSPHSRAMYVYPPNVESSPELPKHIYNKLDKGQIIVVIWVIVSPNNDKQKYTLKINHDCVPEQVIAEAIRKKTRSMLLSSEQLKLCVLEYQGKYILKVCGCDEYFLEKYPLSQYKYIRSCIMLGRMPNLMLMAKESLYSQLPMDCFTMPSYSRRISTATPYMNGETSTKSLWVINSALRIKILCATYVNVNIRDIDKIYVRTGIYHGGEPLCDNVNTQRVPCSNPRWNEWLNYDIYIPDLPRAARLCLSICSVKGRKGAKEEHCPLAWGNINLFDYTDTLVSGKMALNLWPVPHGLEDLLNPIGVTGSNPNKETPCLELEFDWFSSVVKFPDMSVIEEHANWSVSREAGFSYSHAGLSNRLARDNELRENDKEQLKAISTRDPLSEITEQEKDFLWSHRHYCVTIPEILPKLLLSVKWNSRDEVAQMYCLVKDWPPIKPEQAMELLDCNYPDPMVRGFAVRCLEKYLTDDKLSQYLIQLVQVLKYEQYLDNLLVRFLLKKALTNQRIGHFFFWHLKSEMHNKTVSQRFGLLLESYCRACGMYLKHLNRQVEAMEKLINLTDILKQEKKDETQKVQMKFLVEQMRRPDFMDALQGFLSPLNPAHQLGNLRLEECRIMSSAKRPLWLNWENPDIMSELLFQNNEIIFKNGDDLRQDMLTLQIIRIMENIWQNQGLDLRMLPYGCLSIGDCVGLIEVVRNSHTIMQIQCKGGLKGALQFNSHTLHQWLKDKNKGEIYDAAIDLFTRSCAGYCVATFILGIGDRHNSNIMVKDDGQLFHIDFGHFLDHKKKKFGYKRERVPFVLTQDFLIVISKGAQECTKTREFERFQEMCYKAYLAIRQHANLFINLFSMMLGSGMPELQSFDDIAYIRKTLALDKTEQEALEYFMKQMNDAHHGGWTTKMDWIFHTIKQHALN
Sequence of p110α/p85α (P27986 whole entry partner, species assumed): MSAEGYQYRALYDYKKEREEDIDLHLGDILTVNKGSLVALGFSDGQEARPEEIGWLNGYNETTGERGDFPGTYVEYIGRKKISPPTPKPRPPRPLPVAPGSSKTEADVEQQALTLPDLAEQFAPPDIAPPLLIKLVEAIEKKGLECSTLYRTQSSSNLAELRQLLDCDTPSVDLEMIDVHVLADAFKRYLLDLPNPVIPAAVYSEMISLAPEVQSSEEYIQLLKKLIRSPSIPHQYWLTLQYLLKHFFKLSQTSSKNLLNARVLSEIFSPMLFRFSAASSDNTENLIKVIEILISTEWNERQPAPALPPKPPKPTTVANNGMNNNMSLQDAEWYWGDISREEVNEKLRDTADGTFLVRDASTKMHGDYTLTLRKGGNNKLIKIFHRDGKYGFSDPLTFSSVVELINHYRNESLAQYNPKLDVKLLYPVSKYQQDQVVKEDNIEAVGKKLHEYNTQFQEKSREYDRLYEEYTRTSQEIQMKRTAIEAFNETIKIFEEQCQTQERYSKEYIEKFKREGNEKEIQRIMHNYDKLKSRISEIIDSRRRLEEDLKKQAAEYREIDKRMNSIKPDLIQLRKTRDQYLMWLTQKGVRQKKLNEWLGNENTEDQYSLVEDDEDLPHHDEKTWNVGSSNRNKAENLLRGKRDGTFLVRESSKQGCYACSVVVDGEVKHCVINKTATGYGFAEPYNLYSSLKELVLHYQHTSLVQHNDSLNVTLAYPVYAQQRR

In the case of `CN1C(=O)[C@@H](CC2CCCC2)N(C2CCCC2)c2nc(Nc3cc(Cl)c(O)c(Cl)c3)ncc21` [7a, (R)-8-cyclopentyl-7-(cyclopentylmethyl)-2-((3,5-dichloro-4-hydroxyphenyl)amino)-5-methyl-7,8-dihydropteridin-6(5H)-one], the “inhibition of p110α/p85α” value (p110α/p85α) is reported as “not inhibited”, the remaining activity at 0.5 µM (PLK2) is reported as 75% and the “phosphorylation of acetyl-CoA carboxylase (ACC)” value (L6 myotubes [1]) is reported as “significantly increased”. The “residual growth of p53(−/−) cells under EGFR inhibition” value (MCF10A p53(−/−) cells; 10 μM 7a) was “eliminated”, the “sensitivity of growth of p53(−/−) vs p53(+/+) cells” value (MCF10A p53(−/−) cells; without EGF supplement) was “more sensitive” and the remaining activity at 0.5 µM (EIF2AK3) was 50%. For the same compound, the remaining activity at 0.5 µM (TYRO3) was 72%, the cell cycle distribution (BT474 cells [2]) was “accumulation of cells in the G0/G1 phase” and the remaining activity at 0.5 µM (NEK11) was 66%. The remaining activity at 0.5 µM (RSK2) was 83%, the remaining activity at 0.5 µM (PI4P5Kγ) was 98% and the “rate of glucose uptake (labeled 2-deoxyglucose)” value (L6 myotubes [3]) was “doubled”. The AMPK activation (MCF7 cells; MCF7, absence of serum) was “caused AMPK activation”, the AMPK activation (MCF7 cells; MCF7, with serum) was “no longer caused AMPK activation” and the Ki (PIKfyve) was ~200 nM. For the same compound, the “basal and insulin-induced phosphorylation of S6K at Thr-389” value (C2Cl2 myotubes) was “reduced”, the “phosphorylation of acetyl-CoA carboxylase (ACC)” value (C2Cl2 myotubes; C2Cl2 myotubes, dose-dependent) was “significantly increased” and the “IRS phosphorylation at Ser-302” value (C2Cl2 myotubes; FIG. 3D) was “reduced”. For the same compound, the Akt phosphorylation (C2Cl2 myotubes; FIG. 3D, comparison 7a vs rapamycin) was “more pronounced effect”, the “hormone-induced Akt phosphorylation, especially at Ser-473” value (C2Cl2 myotubes; overnight incubation with 20 μM) was “increased” and the remaining activity at 0.5 µM (Plk1) was 97%. For the same compound, the p38 phosphorylation (BT474 cells [4]; 20 μM) was “increased”, the “levels of cell-cycle inhibitors p21 and p27” value (BT474 cells [4]; BT474) was “increased levels” and the “mTORC1 activity (S6K phosphorylation)” value (BT474 cells [4]; BT474) was “less S6K phosphorylation”. For the same compound, the “AMPK activation (phosphorylation of ACC and raptor)” value (BT474 cells [4]; BT474, 0, 10 and 20 μM) was “activated”, the AMPK activation (BT474 cells [4]; BT474, absence of serum) was “caused AMPK activation” and the AMPK activation (BT474 cells [4]; BT474, with serum, 32° C.) was “no longer caused AMPK activation”. For the same compound, the AMPK activation (BT474 cells [4]; BT474, with serum, 37° C.) was “activated”, the “inhibition of Vps34” value (Vps34) was “not inhibited” and the ROS (BT-474 cells) was “increased”.

From patent publication US11773096B2, “Small-molecule PI5P4K alpha/beta inhibitors and methods of treatment using same” (YALE UNIVERSITY, priority 2018, dated 2023)
